Data on ten compounds can be found in ChEMBL document CHEMBL3868599, “Strategy for designing selective α-l-rhamnosidase inhibitors: Synthesis and biological evaluation of l-DMDP cyclic isothioureas” (Bioorg Med Chem, 2017).

The species named for experiment [1] is Rattus norvegicus. Description: Inhibition of rat intestinal maltase assessed as D-glucose level at 100 uM using maltose as substrate measured after 10 to 30 mins.
Experiment [2] is filed under the species Bos taurus. As to the kind of experiment: Inhibition of bovine liver beta-glucosidase at 100 uM using p-nitrophenyl-glycoside as substrate by spectrophotometric method.
The subject of experiment [3] is Aspergillus niger. Description: Inhibition of Aspergillus niger amyloglucosidase assessed as D-glucose level at 100 uM using maltose as substrate measured after 10 to 30 mins.
The subject of experiment [4] is Escherichia coli. As to the kind of experiment: Inhibition of Escherichia coli beta-glucuronidase at 100 uM using p-nitrophenyl-glycoside as substrate by spectrophotometric method.
The target in experiment [5] is T1, Tissue alpha-L-fucosidase (Bos taurus) (UniProt Q2KIM0).
T1 sequence (whole entry): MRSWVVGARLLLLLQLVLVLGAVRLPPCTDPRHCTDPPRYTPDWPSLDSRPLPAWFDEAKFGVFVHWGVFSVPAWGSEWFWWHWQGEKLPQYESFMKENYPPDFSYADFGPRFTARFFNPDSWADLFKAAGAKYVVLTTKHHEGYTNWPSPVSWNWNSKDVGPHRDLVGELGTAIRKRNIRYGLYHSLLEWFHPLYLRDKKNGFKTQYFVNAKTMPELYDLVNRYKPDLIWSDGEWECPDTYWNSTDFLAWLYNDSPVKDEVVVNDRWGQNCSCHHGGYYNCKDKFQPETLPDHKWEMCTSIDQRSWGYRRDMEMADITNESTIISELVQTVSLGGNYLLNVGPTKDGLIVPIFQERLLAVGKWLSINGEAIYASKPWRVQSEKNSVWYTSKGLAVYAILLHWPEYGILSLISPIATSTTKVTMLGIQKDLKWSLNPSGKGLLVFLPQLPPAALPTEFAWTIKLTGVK
Description: Inhibition of bovine kidney alpha-L-fucosidase at 100 uM using p-nitrophenyl-glycoside as substrate by spectrophotometric method.

Another experiment deals with T2, Beta-galactosidase (Bos taurus, UniProt Q58D55).
T2 sequence (Q58D55 whole entry): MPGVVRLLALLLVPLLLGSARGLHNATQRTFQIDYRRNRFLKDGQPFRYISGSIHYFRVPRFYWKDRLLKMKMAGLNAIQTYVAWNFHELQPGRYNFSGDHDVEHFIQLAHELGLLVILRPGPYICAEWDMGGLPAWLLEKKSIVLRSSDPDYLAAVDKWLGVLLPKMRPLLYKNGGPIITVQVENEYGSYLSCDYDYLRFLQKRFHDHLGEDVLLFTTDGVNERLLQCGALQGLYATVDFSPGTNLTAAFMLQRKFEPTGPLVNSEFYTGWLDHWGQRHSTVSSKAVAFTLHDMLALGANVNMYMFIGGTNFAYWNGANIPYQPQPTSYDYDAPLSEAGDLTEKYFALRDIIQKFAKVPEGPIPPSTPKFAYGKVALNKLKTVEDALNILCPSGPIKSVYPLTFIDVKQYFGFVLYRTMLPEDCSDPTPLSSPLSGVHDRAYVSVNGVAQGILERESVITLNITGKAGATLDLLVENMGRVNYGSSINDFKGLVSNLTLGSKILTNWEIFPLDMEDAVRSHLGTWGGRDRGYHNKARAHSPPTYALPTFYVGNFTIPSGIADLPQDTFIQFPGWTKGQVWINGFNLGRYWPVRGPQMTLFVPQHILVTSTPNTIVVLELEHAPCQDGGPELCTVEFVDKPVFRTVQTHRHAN
Description: Inhibition of bovine liver beta-galactosidase using p-nitrophenyl-glycoside as substrate by spectrophotometric method.

The subject of another experiment is Penicillium decumbens. As to the kind of experiment: Inhibition of Penicillium decumbens alpha-L-rhamnosidase at 100 uM using p-nitrophenyl-glycoside as substrate by spectrophotometric method.
In the next experiment the test system is Oryza sativa. As to the kind of experiment: Inhibition of rice alpha-glucosidase at 100 uM using p-nitrophenyl-glycoside as substrate by spectrophotometric method.
Experiment [6] concerns the target T3, Uncharacterized protein (Sus scrofa) (UniProt I3LIR5).
T3 sequence (whole entry): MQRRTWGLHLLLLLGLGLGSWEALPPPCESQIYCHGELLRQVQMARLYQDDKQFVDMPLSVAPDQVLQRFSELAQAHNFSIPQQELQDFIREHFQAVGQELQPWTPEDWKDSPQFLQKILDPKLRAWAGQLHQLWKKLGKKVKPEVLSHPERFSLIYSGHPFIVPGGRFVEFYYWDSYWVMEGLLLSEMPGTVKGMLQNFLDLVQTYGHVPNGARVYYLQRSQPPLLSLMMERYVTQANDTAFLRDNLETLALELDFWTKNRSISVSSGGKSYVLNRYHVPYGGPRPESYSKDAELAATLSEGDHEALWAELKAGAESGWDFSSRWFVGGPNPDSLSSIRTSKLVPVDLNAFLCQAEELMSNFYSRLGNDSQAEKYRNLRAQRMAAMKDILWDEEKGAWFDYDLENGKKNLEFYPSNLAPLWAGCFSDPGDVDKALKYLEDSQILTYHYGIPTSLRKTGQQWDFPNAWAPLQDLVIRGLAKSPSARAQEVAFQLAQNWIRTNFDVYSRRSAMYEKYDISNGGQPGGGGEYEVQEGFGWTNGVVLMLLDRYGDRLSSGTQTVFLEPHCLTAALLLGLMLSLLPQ
As to the kind of experiment: Inhibition of porcine kidney trehalase assessed as D-glucose level at 100 uM using maltose as substrate measured after 10 to 30 mins.

For experiment [7], the system named is Prunus dulcis. Description: Inhibition of almond beta-glucosidase at 100 uM using p-nitrophenyl-glycoside as substrate by spectrophotometric method.
A short description of experiment [8]: Inhibition of human lysosomal beta-glucosidase using 4-methylumbelliferyl-beta-D-glucopyranoside as substrate preincubated for 45 mins followed by substrate addition measured after 30 mins by fluorescence spectrophotometric method.
The species named for experiment [9] is Homo sapiens. Description: Inhibition of human lysosomal beta-glucosidase at 100 uM using 4-methylumbelliferyl-beta-D-glucopyranoside as substrate preincubated for 45 mins followed by substrate addition measured after 30 mins by fluorescence spectrophotometric method.
The nature of experiment [10]: Inhibition of Penicillium decumbens alpha-L-rhamnosidase using p-nitrophenyl-glycoside as substrate by spectrophotometric method.
Experiment [11] has as its target T4, Beta-galactosidase (Bos taurus) (UniProt Q58D55).
T4 sequence (whole entry): T2 sequence (Q58D55 whole entry)
As to the kind of experiment: Inhibition of bovine liver beta-galactosidase at 100 uM using p-nitrophenyl-glycoside as substrate by spectrophotometric method.

The nature of experiment [12]: Inhibition of bovine liver beta-glucosidase using p-nitrophenyl-glycoside as substrate by spectrophotometric method. Also on record: species or system Bos taurus.
Experiment [13] has as its system Aspergillus niger. Description: Inhibition of Aspergillus niger amyloglucosidase assessed as D-glucose level at 1000 uM using maltose as substrate measured after 10 to 30 mins.
The subject of experiment [14] is Prunus dulcis. Description: Inhibition of almond beta-glucosidase at 1000 uM using p-nitrophenyl-glycoside as substrate by spectrophotometric method.
In experiment [15] the target is T3, Uncharacterized protein (Sus scrofa). As to the kind of experiment: Inhibition of porcine kidney trehalase assessed as D-glucose level at 1000 uM using maltose as substrate measured after 10 to 30 mins.
Experiment [16] is described as follows: Inhibition of rice alpha-glucosidase using p-nitrophenyl-glycoside as substrate by spectrophotometric method. Also on record: species or system Oryza sativa.
For experiment [17], the target named is T1, Tissue alpha-L-fucosidase (Bos taurus). Description: Inhibition of bovine kidney alpha-L-fucosidase at 1000 uM using p-nitrophenyl-glycoside as substrate by spectrophotometric method.
Experiment [18] is filed under the species Homo sapiens. As to the kind of experiment: Inhibition of human lysosomal beta-glucosidase at 1000 uM using 4-methylumbelliferyl-beta-D-glucopyranoside as substrate preincubated for 45 mins followed by substrate addition measured after 30 mins by fluorescence spectrophotometric method.
In experiment [19] the test system is Escherichia coli. Description: Inhibition of Escherichia coli beta-glucuronidase at 1000 uM using p-nitrophenyl-glycoside as substrate by spectrophotometric method.
For experiment [20], the species on record is Bos taurus. As to the kind of experiment: Inhibition of bovine liver beta-glucosidase at 1000 uM using p-nitrophenyl-glycoside as substrate by spectrophotometric method.
For experiment [21], the species on record is Rattus norvegicus. Description: Inhibition of rat intestinal maltase assessed as D-glucose level at 1000 uM using maltose as substrate measured after 10 to 30 mins.

Regarding `CCCCCCCCCCNC(=S)N1[C@H](CO)[C@@H](O)[C@H](O)[C@H]1CO`, the inhibition (in the experiment filed under Rattus norvegicus [1]; in the experiment filed under Bos taurus [2]; with Aspergillus niger [3]; with Escherichia coli [4]; in [5]; in the experiment with Penicillium decumbens) was < 50% throughout. Further, the inhibition (in the experiment on Oryza sativa; in experiment [6]; in the experiment with Prunus dulcis [7]) was < 50% in each case. The results for the IC50 (against Beta-galactosidase; in [8]) were 100 µM and 740 nM, respectively.

For `OC[C@H]1[C@H](O)[C@@H](O)[C@@H]2CS/C(=N/CCCCCCCc3ccccc3)N12`, the inhibition (in the experiment filed under Rattus norvegicus [1]; in the experiment filed under Bos taurus [2]; in the experiment listed under Homo sapiens [9]; in the experiment with Aspergillus niger [3]; in experiment [11]; with Escherichia coli [4]) was < 50% in each case. Further, the inhibition (in [5]; in the experiment with Oryza sativa; in experiment [6]; in the experiment with Prunus dulcis [7]) was < 50% each time. Also, in [10], the IC50 turned out to be 1000 nM.

For `CCCCCCCCCCNC(=S)N1[C@@H](CO)[C@H](O)[C@@H](O)[C@@H]1CO`, the inhibition (in the experiment filed under Rattus norvegicus [1]; in the experiment on Aspergillus niger [3]; in the experiment with Escherichia coli [4]; in experiment [5]; with Penicillium decumbens; in the experiment with Oryza sativa) was < 50% each time. Also, the inhibition (in experiment [6]; with Prunus dulcis [7]) was < 50% each time. Further, the half-maximal inhibitory concentration (IC50) against Beta-galactosidase worked out at 61 µM; in experiment [12], 16 µM; in experiment [8], 65000 nM.

`OC[C@H]1[C@H](O)[C@@H](O)[C@@H]2CS/C(=N/CCCCCc3ccccc3)N12`: the inhibition (in the experiment listed under Rattus norvegicus [1]; in the experiment listed under Bos taurus [2]; in the experiment listed under Homo sapiens [9]; in the experiment on Aspergillus niger [3]; in experiment [11]; in the experiment on Escherichia coli [4]) was < 50% each time. The inhibition (in experiment [5]; with Oryza sativa; in [6]; with Prunus dulcis [7]) was < 50% throughout. The compound further returned an IC50 in experiment [10] of 1800 nM.

Take `CCCCCCCCCCCCNC(=S)N1[C@H](CO)[C@@H](O)[C@H](O)[C@H]1CO`: the inhibition (in the experiment filed under Rattus norvegicus [1]; with Aspergillus niger [3]; in the experiment on Escherichia coli [4]; in experiment [5]; with Penicillium decumbens; in the experiment with Oryza sativa) was < 50% each time. Also, the inhibition (in experiment [6]; with Prunus dulcis [7]) was < 50% throughout. Besides, the figures for the IC50 (at Beta-galactosidase; in [12]; in [8]) were 24 µM, 23 µM and 160 nM, respectively.

As for `CCCCCCCCCC/N=C1/SC[C@@H]2[C@@H](O)[C@H](O)[C@@H](CO)N12`, the inhibition (in the experiment filed under Rattus norvegicus [1]; in the experiment on Aspergillus niger [3]; in the experiment on Escherichia coli [4]; in [5]; in the experiment on Penicillium decumbens; in the experiment with Oryza sativa) was < 50% in each case. For the same compound, the inhibition (in [6]; in the experiment on Prunus dulcis [7]) was < 50% in each case. For the same compound, the IC50 at Beta-galactosidase was 93 µM; in [12], 63 µM; in experiment [8] it was 1000 nM.

For `CCCC/N=C1/SC[C@H]2[C@H](O)[C@@H](O)[C@H](CO)N12`, the inhibition (in the experiment with Aspergillus niger [13]; in the experiment with Prunus dulcis [14]; in experiment [15]; in experiment [17]; in the experiment filed under Homo sapiens [18]; in the experiment with Escherichia coli [19]) was < 50% each time. Further, the inhibition in the experiment listed under Bos taurus [20] and in the experiment listed under Rattus norvegicus [21] was < 50% in each case. In addition, the IC50 stood at 339 µM in experiment [16], 37000 nM in experiment [10] and 719 µM at Beta-galactosidase.

Consider `OC[C@H]1[C@H](O)[C@@H](O)[C@@H]2CS/C(=N/Cc3ccccc3)N12`, for which the inhibition (in the experiment listed under Rattus norvegicus [1]; in the experiment filed under Bos taurus [2]; in the experiment listed under Homo sapiens [9]; with Aspergillus niger [3]; in experiment [11]; in the experiment with Escherichia coli [4]) was < 50% in each case. Also, the inhibition (in experiment [5]; in the experiment with Oryza sativa; in experiment [6]; in the experiment on Prunus dulcis [7]) was < 50% in each case. The 50% inhibitory concentration (IC50) in experiment [10] came out at 2200 nM.

As for `CCCCCCCCCCCCNC(=S)N1[C@@H](CO)[C@H](O)[C@@H](O)[C@@H]1CO`, the inhibition (in the experiment listed under Rattus norvegicus [1]; with Aspergillus niger [3]; with Escherichia coli [4]; in [5]; in the experiment on Penicillium decumbens; in the experiment with Oryza sativa) was < 50% each time. In addition, the inhibition (in experiment [6]; with Prunus dulcis [7]) was < 50% in each case. Also, the half-inhibitory concentration (IC50) on Beta-galactosidase stood at 30 µM; in experiment [12] it was 36 µM; in experiment [8], 73000 nM.

As to `OC[C@H]1[C@H](O)[C@@H](O)[C@@H]2CS/C(=N/CCCc3ccccc3)N12`, the inhibition (in the experiment listed under Rattus norvegicus [1]; in the experiment listed under Bos taurus [2]; in the experiment filed under Homo sapiens [9]; in the experiment on Aspergillus niger [3]; in [11]; in the experiment on Escherichia coli [4]) was < 50% throughout. Moreover, the inhibition (in experiment [5]; in the experiment with Oryza sativa; in experiment [6]; in the experiment with Prunus dulcis [7]) was < 50% each time. In experiment [10], the half-maximal inhibitory concentration (IC50) stood at 6800 nM.

The term inhibition denotes the relative decrease from the control value, in per cent. For orientation: IC50 means the point on the concentration scale where inhibition reaches its midpoint. Low readings indicate higher potency, high ones lower potency.
